Test results from patent publication US20070249620A1, “Urea Derivative” (priority 2004, published 2007).

Legend:
[1] = biological target: T1, mouse DGAT1 (Mus musculus, UniProt Q9Z2A7); assay: DGAT1 inhibitory effect test (microsome fraction, [14C]-oleoyl-CoA, triglyceride radioactivity by TLC); assay type: biochemical; conditions: 0.5 h; concentration of the test compound 0.1 μg/ml; mouse DGAT1 microsomes, 23° C., 30 minutes; read-out: Inhibitory ratio
T1 construct: made in house; host or cells: insect cells (High Five, Sf9, Sf21, etc.), baculovirus expression system (Invitrogen)
T1 sequence (Q9Z2A7 1-498): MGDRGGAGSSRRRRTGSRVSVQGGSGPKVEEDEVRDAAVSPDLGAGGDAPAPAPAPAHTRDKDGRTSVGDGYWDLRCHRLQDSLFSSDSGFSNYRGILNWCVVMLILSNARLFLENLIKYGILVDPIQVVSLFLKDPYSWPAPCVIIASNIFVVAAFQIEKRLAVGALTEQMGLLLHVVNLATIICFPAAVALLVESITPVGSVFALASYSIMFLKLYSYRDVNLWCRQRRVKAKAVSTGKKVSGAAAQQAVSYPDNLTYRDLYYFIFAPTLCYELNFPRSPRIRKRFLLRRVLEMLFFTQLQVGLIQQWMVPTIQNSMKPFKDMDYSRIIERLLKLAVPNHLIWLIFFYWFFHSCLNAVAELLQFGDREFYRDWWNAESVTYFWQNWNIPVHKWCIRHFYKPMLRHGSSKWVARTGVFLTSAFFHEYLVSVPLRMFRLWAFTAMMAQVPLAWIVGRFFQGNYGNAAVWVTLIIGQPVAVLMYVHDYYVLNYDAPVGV
Outline: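 Inhibition was scored from radiolabelled triglyceride separated by TLC, relative to vehicle and net of a 0-min background. The reaction ran for 30 min at room temperature (23 °C) in Tris-HCl pH 8.0 with MgCl2, BSA and Triton X-100. Substrates were 30 μM [14C]-oleoyl-CoA and 0.5 mM dioleoylglycerol, with mouse DGAT1 microsomes from baculovirus-infected insect cells as enzyme.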

Row | melting point | inhibition at 0.1 µg/mL [1] [%] | Structure (SMILES)
1 | 179 to 180 °C | ≥ 50 | COc1ccccc1NC(=O)Nc1ccc(N2CCN(C(=O)Nc3cc(OCCO)ccc3Cl)CC2)cc1 [Example 232, 4-{4-[3-(2-methoxy-phenyl)-ureido]-phenyl}-piperazine-1-carboxylic acid [2-chloro-5-(2-hydroxy-ethoxy)-phenyl]-amide]
2 | 222 to 224 °C | ≥ 50 | COc1ccc(F)cc1NC(=O)Nc1ccc(N2CCN(C(=O)Nc3ccccc3C)CC2)cc1 [Example 97, 4-{4-[3-(5-fluoro-2-methoxy-phenyl)-ureido]-phenyl}-piperazine-1-carboxylic acid o-tolylamide]
3 | 213 to 215 °C | ≥ 50 | COc1ccc(C)cc1NC(=O)Nc1ccc(N2CCN(C(=O)Nc3c(C)cccc3[N+](=O)[O-])CC2)cc1 [Example 60, 4-{4-[3-(2-methoxy-5-methyl-phenyl)-ureido]-phenyl}-piperazine-1-carboxylic acid (2-methyl-6-nitro-phenyl)-amide]
4 | 174 to 176 °C | ≥ 50 | COc1ccc(C)cc1NC(=O)Nc1ccc(N2CCN(C(=O)Nc3ccc(OCCO)cc3C)CC2)cc1 [Example 208, 4-{4-[3-(2-methoxy-5-methyl-phenyl)-ureido]-phenyl}-piperazine-1-carboxylic acid [4-(2-hydroxy-ethoxy)-2-methyl-phenyl]-amide]
5 | 124 to 126 °C | ≥ 50 | CCOc1ccc(Cl)cc1NC(=O)Nc1ccc(N2CCN(C(=O)Nc3ccc(C)cc3Cl)CC2)cc1 [Example 107, 4-{4-[3-(5-chloro-2-ethoxy-phenyl)-ureido]-phenyl}-piperazine-1-carboxylic acid (2-chloro-4-methyl-phenyl)-amide]
6 | 187 to 190 °C | ≥ 50 | COc1ccc(C)cc1NC(=O)Nc1ccc(N2CCN(C(=O)Nc3ccc(OCC(O)CO)cc3C(F)(F)F)CC2)cc1 (centres unmarked) [Example 275, 4-{4-[3-(2-methoxy-5-methyl-phenyl)-ureido]-phenyl}-piperazine-1-carboxylic acid [4-(2,3-dihydroxy-propoxy)-2-trifluoromethyl-phenyl]-amide]
7 | 189 to 190 °C | ≥ 50 | COc1ccc(C)cc1NC(=O)Nc1ccc(N2CCN(C(=O)Nc3ccc(OCCO)cc3C)CC2)nc1 [Example 219, 4-{5-[3-(2-methoxy-5-methyl-phenyl)-ureido]-pyridin-2-yl}-piperazine-1-carboxylic acid [4-(2-hydroxy-ethoxy)-2-methyl-phenyl]-amide]
8 | 178 to 180 °C | ≥ 50 | COc1ccc(C)cc1NC(=O)Nc1ccc(N2CCN(C(=O)Nc3ccc(C(=O)O)cc3C)CC2)cc1 [Example 180, 4-[(4-{4-[3-(2-methoxy-5-methyl-phenyl)-ureido]-phenyl}-piperazine-1-carbonyl)-amino]-3-methyl-benzoic acid]
9 | 118 to 120 °C | ≥ 50 | COc1ccccc1NC(=O)Nc1ccc(N2CCN(C(=O)Nc3ccc(OCCO)cc3C(F)(F)F)CC2)cc1 [Example 217, 4-{4-[3-(2-methoxy-phenyl)-ureido]-phenyl}-piperazine-1-carboxylic acid [4-(2-hydroxy-ethoxy)-2-trifluoromethyl-phenyl]-amide]
10 | > 270 °C (dec.) | ≥ 50 | COc1ccc(C)cc1NC(=O)Nc1ccc(N2CCN(C(=O)Nc3ccc(F)cc3C)CC2)cc1 [Example 172, 4-{4-[3-(2-methoxy-5-methyl-phenyl)-ureido]-phenyl}-piperazine-1-carboxylic acid (4-fluoro-2-methyl-phenyl)-amide]
11 | 212 to 214 °C | ≥ 50 | COc1ccc(C)cc1NC(=O)Nc1ccc(N2CCN(C(=O)Nc3ccccc3Br)CC2)cc1 [Example 57, 4-{4-[3-(2-methoxy-5-methyl-phenyl)-ureido]-phenyl}-piperazine-1-carboxylic acid (2-bromo-phenyl)-amide]
12 | 202 to 204 °C | ≥ 50 | CCOc1ccc(C)cc1NC(=O)Nc1ccc(N2CCN(C(=O)Nc3ccc(OC)cc3C)CC2)cc1 [Example 111, 4-{4-[3-(2-ethoxy-5-methyl-phenyl)-ureido]-phenyl}-piperazine-1-carboxylic acid (4-methoxy-2-methyl-phenyl)-amide]

Further lines, the compound ahead of its results:

Row | Structure (SMILES) | melting point | inhibition at 0.1 µg/mL [1] [%]
13 | COc1ccccc1NC(=O)Nc1ccc(C2CCN(C(=O)Nc3ccc(OCCO)cc3Cl)CC2)cc1 [Example 261, 4-{4-[3-(2-methoxy-phenyl)-ureido]-phenyl}-piperidine-1-carboxylic acid [2-chloro-4-(2-hydroxy-ethoxy)-phenyl]-amide] | 166 to 168 °C | ≥ 50
14 | CCOc1ccccc1NC(=O)Nc1ccc(N2CCN(C(=O)Nc3ccccc3C)CC2)cc1 [Example 81, 4-{4-[3-(2-ethoxy-phenyl)-ureido]-phenyl}-piperazine-1-carboxylic acid o-tolylamide] | 206 to 208 °C | ≥ 50
15 | COc1ccc(C)cc1NC(=O)Nc1ccc(N2CCN(C(=O)Nc3c(C)cccc3Cl)C(C)C2)cc1 (centres unmarked) [Example 198, 4-{4-[3-(2-methoxy-5-methyl-phenyl)-ureido]-phenyl}-2-methyl-piperazine-1-carboxylic acid (2-chloro-6-methyl-phenyl)-amide] | 161 to 163 °C | ≥ 50
16 | O=C(Nc1ccc2c(c1)CCN(C(=O)Nc1ccc(OCCO)cc1Cl)C2)Nc1ccccc1F [Example 267, 6-[3-(2-fluoro-phenyl)-ureido]-3,4-dihydro-1H-isoquinoline-2-carboxylic acid [2-chloro-4-(2-hydroxy-ethoxy)-phenyl]-amide] | 183 to 186 °C | ≥ 50
17 | Cc1ccc(F)c(NC(=O)Nc2ccc(N3CCN(C(=O)OC(C)(C)C)CC3)cc2)c1 [Example 37, 4-{4-[3-(2-fluoro-5-methyl-phenyl)-ureido]-phenyl}-piperazine-1-carboxylic acid tert-butyl ester] | 211 to 214 °C | ≥ 50
18 | CCOc1ccccc1NC(=O)Nc1ccc(N2CCN(C(=O)Nc3c(C)cccc3Cl)CC2)nc1 [Example 141, 4-{5-[3-(2-ethoxy-phenyl)-ureido]-pyridin-2-yl}-piperazine-1-carboxylic acid (2-chloro-6-methyl-phenyl)-amide] | 185 to 186 °C | ≥ 50
19 | CCOc1ccccc1NC(=O)Nc1ccc(N2CCN(C(=O)OC(C)(C)C)CC2)nc1 [Example 39, 4-{5-[3-(2-ethoxy-phenyl)-ureido]-pyridin-2-yl}-piperazine-1-carboxylic acid tert-butyl ester] | 162 °C | ≥ 50
20 | COc1ccc(C)cc1NC(=O)Nc1ccc(N2CCN(C(=O)Nc3ccccc3C(F)(F)F)CC2)cc1 [Example 53, 4-{4-[3-(2-methoxy-5-methyl-phenyl)-ureido]-phenyl}-piperazine-1-carboxylic acid (2-trifluoromethyl-phenyl)-amide] | 170 to 171 °C | ≥ 50
21 | COc1ccc(F)cc1NC(=O)Nc1ccc(N2CCN(C(=O)Nc3c(C)cccc3C)CC2)cc1 [Example 99, 4-{4-[3-(5-fluoro-2-methoxy-phenyl)-ureido]-phenyl}-piperazine-1-carboxylic acid (2,6-dimethyl-phenyl)-amide] | 226 to 228 °C | ≥ 50
22 | COc1ccc(F)cc1NC(=O)Nc1ccc(N2CCN(C(=O)Nc3c(C)cccc3Cl)CC2)nc1 [Example 148, 4-{5-[3-(5-fluoro-2-methoxy-phenyl)-ureido]-pyridin-2-yl}-piperazine-1-carboxylic acid (2-chloro-6-methyl-phenyl)-amide] | 227 to 228 °C | ≥ 50
23 | CCOc1ccc(Cl)cc1NC(=O)Nc1ccc(N2CCN(C(=O)Nc3c(F)cccc3C(F)(F)F)CC2)cc1 [Example 105, 4-{4-[3-(5-chloro-2-ethoxy-phenyl)-ureido]-phenyl}-piperazine-1-carboxylic acid (2-fluoro-6-trifluoromethyl-phenyl)-amide] | 146 to 148 °C | ≥ 50
24 | CCOc1ccc(Cl)cc1NC(=O)Nc1ccc(N2CCN(C(=O)Nc3c(C)cccc3C)CC2)cc1 [Example 104, 4-{4-[3-(5-chloro-2-ethoxy-phenyl)-ureido]-phenyl}-piperazine-1-carboxylic acid (2,6-dimethyl-phenyl)-amide] | 144 to 146 °C | ≥ 50
25 | CCOc1cccc(NC(=O)Nc2ccc(N3CCN(C(=O)Nc4ncccc4C)CC3)cc2)c1 [Example 305, 4-{4-[3-(3-ethoxy-phenyl)-ureido]-phenyl}-piperazine-1-carboxylic acid (3-methyl-pyridin-2-yl)-amide] | 171 to 173 °C | ≥ 50
